Source: patent publication US12029751B2, “Therapeutic agent for nervous system disease” (OSAKA UNIVERSITY, priority 2017, dated 2024)

What was measured:
[1] = system: rat sciatic nerve crush injury model; test: Nerve regeneration after sciatic nerve injury (axons, myelinated axons, myelination rate); assay type: in vivo; details: for Myelination ratio / Number of axons / Number of myelinated axons: POD14
Source text: Six-week-old male Wistar rats (about 200 g) were used. The left sciatic nerve was exteriorized, and crush injury of the sciatic nerve was made on the proximal side by forceps. The nerve was crushed for 10 seconds three times at 10-second intervals. The fascia and skin were sutured using 3-0 nylon. A non-injury group which underwent only sciatic nerve exposure, an untreated group, and a methylcobalamin treatment group were compared. To administer methylcobalamin continuously, an osmotic minipump was placed and left in the dorsal subcutaneous space, and methylcobalamin was administered at a dose of 1 mg/kg/day. In an untreated group, physiological saline was administered instead of methylcobalamin according to the same procedure.
At 1, 3, 7, and 14 days after the surgery, rats were anesthetized with an anesthetic agent. The left sciatic nerve was collected, fixed with 4% PFA for 7 days and with 20% sucrose for 24 hours, and the fixed nerve was freeze-embedded. The embedded tissue was sliced into a 5-μm-thick slice in a nerve short-axis direction and placed on a glass slide. Slices were obtained from 5 positions of 2.5 mm in the proximal direction from an injured region, the injured region, and 2.5, 5.0, and 7.5 mm in the distal direction. The slices were dried for 1 hour and fixed with 95% methanol for 30 minutes. The fixed slices were blocked and allowed to react with primary antibodies at 4° C. overnight. The cells were further allowed to react with a secondary antibody at room temperature for 1 hour so that the nuclei were labeled with DAPI.
The primary antibodies used were a mouse anti-CD68 monoclonal antibody (Abcam), a rabbit anti-iNOS monoclonal antibody (Abcam), a rabbit anti-CD206 monoclonal antibody (Abeam), a rabbit anti-neurofilament 200 (NF 200) polyclonal antibody (SIGMA), and a mouse anti-myelin basic protein (MBP) monoclonal antibody (Calbiochem). The secondary antibodies used were an Alexa 488-labeled goat anti-mouse IgG antibody (Life Technologies), an Alexa 488-labeled goat anti-rabbit IgG antibody (Life Technologies), an Alexa 568-labeled goat anti-mouse IgG antibody (Life Technologies), and an Alexa 568-labeled goat anti-rabbit IgG antibody (Life Technologies).
Effects of methylcobalamin on nerve regeneration after sciatic nerve injury were analyzed by an immunohistological evaluation method. Specifically, the analysis was carried out as follows. Transvers sections of an injured sciatic nerve obtained at 2 weeks after sciatic nerve injury were used for evaluation. As in the macrophage evaluation, evaluations were carried out for the sections at 2.5 mm in the proximal direction from an injury site, the injury site, and 2.5, 5.0, and 7.5 mm in the distal direction. Regenerated axons were labeled with NF 200, and myelin sheaths were labeled with MBP. The myelination rate of the regenerated axons was calculated by the following formula: Myelination rate (%)=number of myelinated axons per mm^2/number of axons per mm^2×100. More specifically, the analysis was performed in the same manner as in Example 7.

[2] = system: rat spinal cord injury model; test: Thermal algesimetry test in rat spinal cord injury model; assay type: in vivo; details: for Thermal algesimetry test, Time after spying infrared thermal stimulation: right sole
Procedure: Six-week-old female Wistar rats were used. The rats were purchased from Charles River Laboratories Japan, Inc. (Yokohama, Japan). Anesthesia was performed as follows. A 1:10 dilution of a mixture of three anesthetic agents in physiological saline was administered by intraperitoneal injection. One dose consisted of 0.2 mg/kg of midazolam, 0.015 mg/kg of medetomidine, and 0.25 mg/kg of butorphanol. The rat was placed in a prone position on an operating table, and a dorsal midline incision was made. The T10 vertebral arch was removed to expose the posterior face of the spinal cord, and the left spinal cord was hemisected using a sharp-pointed surgical scalpel (spitz mess). The skin was sutured using a 4-0 nylon thread and the surgery was completed. A comparison was made among three groups: a methylcobalamin treatment group, an untreated group, and a sham group. Immediately after the surgical operation, an osmotic minipump filled with methylcobalamin (1 mg/kg/day) or physiological saline was placed for the methylcobalamin treatment group and the untreated group, respectively, and left in the left dorsal subcutaneous space. The sham group underwent only resection of the Th10 vertebral arch.
Each rat was separately accommodated in a dedicated cage, an infrared thermal stimulation was applied to the right sole, and time until the rat retracted the hind limb was measured. To avoid damage to the skin, the stimulation was continued for 15 seconds at the maximum. The evaluations were performed before surgery, and at 7, 14, 21, and 28 days after the surgery.

[3] = 5.0 and 7.5 mm in the distal direction, 2 weeks after injury
[4] = 2.5 mm in the proximal direction
[5] = injury site, 2 weeks after sciatic nerve injury, 1 mg/kg/day

Question: C/C1=C2/[N-][C@H]([C@H](CC(N)=O)[C@@]2(C)CCC(=O)NC[C@@H](C)OP(=O)([O-])O[C@H]2[C@@H](O)[C@@H](n3cnc4cc(C)c(C)cc43)O[C@@H]2CO)[C@]2(C)N=C(/C(C)=C3N=C(/C=C4N=C1[C@@H](CCC(N)=O)C\4(C)C)[C@@H](CCC(N)=O)[C@]\3(C)CC(N)=O)[C@@H](CCC(N)=O)[C@]2(C)CC(N)=O.[CH3-].[Co+3] [MeCbl, methylcobalamin] was tested. Which “myelination rate as compared to the untreated group” value [1, 3] did it give?
Answer: significant differences

Question: And the “numbers of axons as compared to the untreated group” value [1, 3]?
Answer: significant differences

Question: And the Myelination ratio ([1]; 2.5 mm in the distal direction)?
Answer: 0.531

Question: And the Number of axons ([1]; 2.5 mm in the distal direction)?
Answer: 14478

Question: What about the “Number of myelinated axons” value ([1]; 2.5 mm in the distal direction) of the same molecule?
Answer: 7620

Question: What about the Myelination ratio [1, 4] of the same molecule?
Answer: 0.975

Question: And the Number of axons [1, 4]?
Answer: 16251

Question: And the “Number of myelinated axons” value [1, 4]?
Answer: 15838

Question: And the Myelination ratio ([1]; 5.0 mm in the distal direction)?
Answer: 0.253

Question: What about the Number of axons ([1]; 5.0 mm in the distal direction) of the same molecule?
Answer: 16663

Question: And the “Number of myelinated axons” value ([1]; 5.0 mm in the distal direction)?
Answer: 4400

Question: What about the Myelination ratio ([1]; 7.5 mm in the distal direction) of the same molecule?
Answer: 0.163

Question: What about the Number of axons ([1]; 7.5 mm in the distal direction) of the same molecule?
Answer: 14678

Question: What about the “Number of myelinated axons” value ([1]; 7.5 mm in the distal direction) of the same molecule?
Answer: 2473

Question: What about the Myelination ratio ([1]; Injury site) of the same molecule?
Answer: 0.691

Question: And the Number of axons ([1]; Injury site)?
Answer: 14210

Question: And the “Number of myelinated axons” value ([1]; Injury site)?
Answer: 9785

Question: And the “numbers of axons as compared to the untreated group” value [1, 5]?
Answer: significantly improved

Question: What about the “numbers of myelinated axons as compared to the untreated group” value [1, 5] of the same molecule?
Answer: significantly improved

Question: What about the Thermal algesimetry test, Time after spying infrared thermal stimulation ([2]; 0 days after surgery (before surgery)) of the same molecule?
Answer: 9.99 s

Question: And the “right-lower-extremity hyperesthesia (thermal algesimetry test)” value ([2]; 21 and 28 days after the surgery, 1 mg/kg/day osmotic minipump)?
Answer: significantly improved

Question: What about the Thermal algesimetry test, Time after spying infrared thermal stimulation ([2]; 7 days after surgery) of the same molecule?
Answer: 8.59 s

Question: What about the Thermal algesimetry test, Time after spying infrared thermal stimulation ([2]; 14 days after surgery) of the same molecule?
Answer: 8.86 s

Question: And the Thermal algesimetry test, Time after spying infrared thermal stimulation ([2]; 21 days after surgery)?
Answer: 9.61 s

Question: And the Thermal algesimetry test, Time after spying infrared thermal stimulation ([2]; 28 days after surgery)?
Answer: 9.92 s
